# Measurements: patent US11512290B2, “Compositions and methods for cellular reprogramming” (Duke University, priority 2018, dated 2022)
# Entries after “also recorded” stand apart in the source; their conditions may differ. {ppp} = triphosphate
# Experiments:
# Type in all cases: cell-based, Mouse (C57BL/6)
# [1] = test system: neonatal cardiac fibroblasts; test: Actn2 (α-sarcomeric actinin) immunofluorescence of reprogrammed fibroblasts
# Protocol: (§1) Mouse (C57BL/6) neonatal cardiac fibroblasts were isolated from 2 day old mouse neonates according to the method outlined in Jayawardena et al. Following isolation fibroblasts were cultured in growth media containing DMEM (ATCC, Catalogue number 30-2002) supplemented with 15% v/v FBS (Thermo Scientific Hyclone Fetal bovine serum, Catalogue number SH30071.03, Lot number AXK49952) and 1% v/v penicillin/streptomycin (Gibco, Catalogue number 15140-122, 100 units Penicillin, 100 ug/ml Streptomycin). Fibroblasts were passaged once the cells had reached 70-80% confluence using 0.05% w/v trypsin (Gibco, Catalogue number 25300-054). Freshly isolated fibroblasts were labelled as Passage 0. Experiments were conducted with cells at passage 2. For all experiments, cells were seeded at 5000 cells/cm^2 in growth media. After 24 hours, the cells were transfected with transfection reagent alone (Dharmafect-I, ThermoScientific), with transfection reagent plus non-targeting microRNAs (negmiR), or with transfection reagent plus our previously reported combination of cardiac reprogramming microRNAs[9] (miR combo, miR-1, miR-133, miR-208, miR-499).
# Cells were fixed with 2% v/v paraformaldehyde (EMS) as described previously. Fixed cells were blocked in antibody buffer (5% w/v BSA, 0.1% v/v Tween-20, in PBS) for 1 hr at room temperature. Following blocking, cells were incubated overnight at 4° C. with a-sarcomeric actinin antibody (Sigma, A7811, 1:100) in antibody buffer. After the overnight incubation, cells were washed three times in antibody buffer. Following washing, cells were incubated with Alexa-Fluor conjugated secondary antibodies (Invitrogen, Goat Anti-mouse 594 nm) at a 1:500 dilution in antibody buffer for 1 hr at room temperature. Nuclei were stained by DAPI at 1 μg/ml for 30 minutes at room temperature in antibody buffer. Following washing in PBS to remove unbound complexes, immunofluorescence was measured using a Zeiss Axiovert 200 inverted microscope.
# [2] = target: T1, TLR3 (Mus musculus, UniProt Q99MB1); test: IL6 ELISA: TLR3 activity measured as IL6 secretion into the media; settings: CU-CPT-4a added one day post-transfection
# T1 construct: neonatal cardiac fibroblasts were transfected with negmiR or miR combo; endogenous in cells; host or cells: mouse (C57BL/6) neonatal cardiac fibroblasts, passage 2
# T1 sequence (Q99MB1 26-905): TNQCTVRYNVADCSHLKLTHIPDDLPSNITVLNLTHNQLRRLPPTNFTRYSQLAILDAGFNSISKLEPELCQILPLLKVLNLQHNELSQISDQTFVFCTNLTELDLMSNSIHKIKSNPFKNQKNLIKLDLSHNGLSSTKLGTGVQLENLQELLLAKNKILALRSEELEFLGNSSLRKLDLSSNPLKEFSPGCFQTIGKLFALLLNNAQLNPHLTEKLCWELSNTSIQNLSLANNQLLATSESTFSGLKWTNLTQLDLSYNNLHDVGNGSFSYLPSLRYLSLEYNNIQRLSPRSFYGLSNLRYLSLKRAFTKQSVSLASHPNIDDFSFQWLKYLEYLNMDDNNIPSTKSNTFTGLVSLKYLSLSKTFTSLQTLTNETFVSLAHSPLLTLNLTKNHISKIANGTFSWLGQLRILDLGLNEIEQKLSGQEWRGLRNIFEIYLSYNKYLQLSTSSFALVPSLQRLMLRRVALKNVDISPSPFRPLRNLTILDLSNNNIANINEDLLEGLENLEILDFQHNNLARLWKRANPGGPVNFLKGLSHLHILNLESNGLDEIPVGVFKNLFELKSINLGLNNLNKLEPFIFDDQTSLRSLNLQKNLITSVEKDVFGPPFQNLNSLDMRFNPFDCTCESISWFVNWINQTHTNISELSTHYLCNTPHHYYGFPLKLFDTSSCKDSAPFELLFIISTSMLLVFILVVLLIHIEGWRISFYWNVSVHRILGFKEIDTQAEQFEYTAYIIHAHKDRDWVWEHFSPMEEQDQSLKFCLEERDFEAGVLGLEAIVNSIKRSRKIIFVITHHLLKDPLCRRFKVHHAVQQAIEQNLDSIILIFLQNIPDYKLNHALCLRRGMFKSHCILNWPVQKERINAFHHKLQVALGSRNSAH
# Protocol: IL6 ELISA kits were from R&D Systems. Fresh media (1 ml) was added to the cells one day prior to assaying for IL6. Per manufacturer's instructions 50 ul of media was assayed and the amount of IL6 in pg/ml in the culture media was determined via a standard curve. The IL6 pg/ml value was then adjusted for the total volume of the media (1 ml) and the total cellular protein in each well to correct for differences in cell number.
# To test this further we transfected cells with microRNAs and assessed TLR3 activity by measuring IL6 secretion into the media. IL6 secretion is an accepted measurement of the activity of TLRs, including TLR3 [30-37]. […] Targeted knockdown of TLR3 or Ikbkb inhibited miR combo induced IL6 secretion; further validating that miR combo activated the TLR3-NFκB pathway (FIG. 6B).
# [3] = test system: neonatal cardiac fibroblasts; test: qPCR of cardiomyocyte sarcomere (maturation) genes in miR combo reprogrammed fibroblasts; settings: for cardiomyocyte maturation (expression of Actn2, Myh6, Tnni3, Cacna1c): miR combo or negmiR transfected, various concentrations of ICR for 4 days, gene expression at day 14
# Protocol: as §1
# qPCR: Total RNA was extracted using Quick-RNA MiniPrep Kit according to the manufacturer's instructions (Zymo Research). Total RNA (50 ng-100 ng) was converted to cDNA using a high capacity cDNA reverse transcription kit (Applied Biosystems). cDNA was used in a standard qPCR reaction involving FAM conjugated gene specific primers and TaqMan Gene Expression Master Mix (Applied Biosystems). The following primers were used for qPCR: Gapdh (Mm99999915_m1), Tnni3 (Mm00437164_m1), Actn2 (Mm00473657_m1), Myh6 (Mm00440359_m1), Cacna1c (Mm00437917_m1), Mef2C (Mm01340482_m1), Tbx5 (Mm00803518_m1), Gata4 (Mm00484689_m1) and Hand2 (Mm00439247 m1).
# [4] = test system: neonatal cardiac fibroblasts; test: qPCR of cardiomyocyte-lineage commitment factors (initiation phase of cardiac reprogramming); settings: TLR3 agonist Poly(I:C) LMW for 3 days after transfection, FIGS. 2Bi-2Biv
# Protocol: as §1
# qPCR: Total RNA was extracted using Quick-RNA MiniPrep Kit according to the manufacturer's instructions (Zymo Research). […]
# [5] = test system: neonatal cardiac fibroblasts; test: Generating beating reprogrammed cardiomyocytes (count of beating colonies)
# Protocol: Isolated mouse (C57BL/6) neonatal cardiac fibroblasts (passage 2) were seeded into 12-well dishes at […] in growth media. Twenty-four hours later growth media was removed and the cells transfected with negmiR or miR combo as described above. One day later, the transfection complexes were removed and media was replaced with a chemically defined reprogramming media[12] that contained 1 ug/ml Poly(I:C) (LMW). For the next four days, cells received fresh chemically defined reprogramming media containing 1 ug/ml Poly(I:C) (LMW) daily. After this period, the cells received chemically defined reprogramming media without Poly(I:C) (LMW) for a further 10 days. Media was replaced every other day. Beating colonies were identified with a Zeiss Axiovert 200 inverted microscope.
compound,measurement,setting,value
O=C(N[C@H](Cc1ccccc1)C(=O)O)c1sc2cc(F)ccc2c1Cl [CU-CPT-4a],ability of miR combo to generate mature cardiomyocytes with organized sarcomeres,"[1]; CU-CPT-4a 10 μM, anti-Actn2 staining, FIGS. 1Ci-1Ciii",completely inhibited
same,effect of negmiR and miR combo upon IL6 secretion,[2],completely ablated
same,effect of miR combo upon cardiomyocyte sarcomere gene expression,"[3]; CU-CPT-4a 10 μM for 4 days after miR combo transfection, then 6 days growth media",completely abolished
same,"miR combo reprogramming with respect to the expression of Myh6, Actn2, and Tnni3","[3]; CU-CPT-4a 10 μM for 4 days after transfection, then 10 days growth media, FIGS. 1Bi-1Biii",completely inhibited
"ICR2: 2′F pyrimidine-incorporated 5′ppp RNA, blunt-ended hairpin, SEQ ID NO: 30: ggaug cggua ccuga cagca ucc (GGAUGCGGUACCUGACAGCAUCC; 2'-fluoro at CU, RNA at AG, 5' {ppp}, backbone not given here; blunt-ended hairpin)","cardiomyocyte maturation (expression of Actn2, Myh6, Tnni3, Cacna1c)",[3],induced maturation; also recorded: activated cardiomyocyte maturation
"ICR4: 5′ppp 2′F ssRNA comprising multiple stem-loops, SEQ ID NO: 37: ggaug cggua ccuga cagca uccua aacuc auggu ccaug uuugu ccaug gacca (GGAUGCGGUACCUGACAGCAUCCUAAACUCAUGGUCCAUGUUUGUCCAUGGACCA; 2'-fluoro at CU, RNA at AG, 5' {ppp}, backbone not given here; single strand with multiple stem-loops)","cardiomyocyte maturation (expression of Actn2, Myh6, Tnni3, Cacna1c)",[3],activated cardiomyocyte maturation
Poly(I:C),"expression of cardiomyocyte-commitment factors Gata4, Hand2, Tbx5 and Mef2C",[4],no effect
same,number of Actn2(+) cells that formed in response to miR combo treatment,"[1]; Poly(I:C) LMW for 4 days, FIG. 7C",increased
same,sarcomere maturation,"[1]; miR combo plus Poly(I:C), inserts of FIGS. 7Bi-7Bvi",enhanced
same,increase of the ability of miR combo to form spontaneously beating colonies,"[5]; addition of Poly(I:C) (LMW) 1 ug/ml, colonies counted 14 days after transfection",3 fold
same,time at which mature beating colonies were observed,"[5]; miR combo plus Poly(I:C), time after transfection",within one week
same,"effect of miR combo upon Myh6, Actn2 and Tnni3 expression","[3]; Poly(I:C) LMW for 4 days after miR combo transfection, then 10 days growth media",significantly enhanced
same,"expression of Myh6, Actn2 and Tnni3 in the control negmiR samples","[3]; Poly(I:C) LMW for 4 days after negmiR transfection, then 10 days growth media",induced expression
